# Tested on: C. albicans ATCC 38247
# Assay: NCCLS broth microdilution MIC (antifungal)
# Assay type: cell-based
# Conditions: E = C. albicans ATCC 38247
# Experimental: (§1) Compounds according to this invention were screened for their in vitro activities against selected species of bacteria and fungi. The minimal inhibition concentration (MIC) of these compounds was determined using the National Committee for Clinical Laboratory Standards (NCCLS) broth microdilution assay in microtiter plates, as set forth in: (1) the guidelines of the National Committee for Clinical Laboratory Standards (NCCLS) Document M7-A4 (NCCLS, 1997); (2) the guidelines of the National Committee for Clinical Laboratory Standards (NCCLS) Document M11-A4 (NCCLS, 1997); and (3) the guidelines and reference method of the National Committee for Clinical Laboratory Standards (NCCLS) Document M27-T (NCCLS, 1995). For antifungal essays, the method recommended in Murray, P R., 1995 Manual of Clinical Microbiology (ASM Press, Washington, D.C.), was employed. […]
row,SMILES,Minimum Inhibitory Concentration (MIC) [µg/mL]
1,Cn1cc(NC(=O)c2cc(NC(=O)CCNC(=O)c3cc(NC(=O)c4cc(NC(=O)c5cc(Br)c(Br)s5)cn4C)cn3C)cn2C)cc1C(=O)NCCC(=O)NCC(C)(C)CN [Id-4],>32
2,Cn1cc(NC(=O)c2cc(NC(=O)CCNC(=O)c3cc(NC(=O)c4cc(NC(=O)c5cc(Br)c(Br)s5)cn4C)cn3C)cn2C)cc1C(=O)NCCC(=O)NCCN1CCCCC1 [Id-5],>32
3,CCN(CC)CCCNC(=O)CCNC(=O)c1cc(NC(=O)c2cc(NC(=O)CCNC(=O)c3cc(NC(=O)c4cc(NC(=O)c5cc(Br)c(Br)s5)cn4C)cn3C)cn2C)cn1C [Id-6],>32

# Tested on: S. pneumoniae ATCC 49619
# Assay: NCCLS broth microdilution MIC
# Assay type: cell-based, Streptococcus pneumoniae
# Conditions: F = S. pneumoniae ATCC 49619
# Experimental: as §1
row,SMILES,Minimum Inhibitory Concentration (MIC)
1,Cn1cc(NC(=O)c2cc(NC(=O)CCNC(=O)c3cc(NC(=O)c4cc(NC(=O)c5cc(Br)c(Br)s5)cn4C)cn3C)cn2C)cc1C(=O)NCCC(=O)NCC(C)(C)CN [Id-4],+++ (+++ = MIC ≦4)
2,Cn1cc(NC(=O)c2cc(NC(=O)CCNC(=O)c3cc(NC(=O)c4cc(NC(=O)c5cc(Br)c(Br)s5)cn4C)cn3C)cn2C)cc1C(=O)NCCC(=O)NCCN1CCCCC1 [Id-5],+++ (+++ = MIC ≦4)
3,CCN(CC)CCCNC(=O)CCNC(=O)c1cc(NC(=O)c2cc(NC(=O)CCNC(=O)c3cc(NC(=O)c4cc(NC(=O)c5cc(Br)c(Br)s5)cn4C)cn3C)cn2C)cn1C [Id-6],+++ (+++ = MIC ≦4)

# Tested on: B. cereus ATCC 11778
# Assay: NCCLS broth microdilution MIC
# Assay type: cell-based, Bacillus cereus
# Conditions: C = B. cereus ATCC 11778
# Experimental: as §1
row,SMILES,Minimum Inhibitory Concentration (MIC)
1,Cn1cc(NC(=O)c2cc(NC(=O)CCNC(=O)c3cc(NC(=O)c4cc(NC(=O)c5cc(Br)c(Br)s5)cn4C)cn3C)cn2C)cc1C(=O)NCCC(=O)NCC(C)(C)CN [Id-4],+++ (+++ = MIC ≦4)
2,Cn1cc(NC(=O)c2cc(NC(=O)CCNC(=O)c3cc(NC(=O)c4cc(NC(=O)c5cc(Br)c(Br)s5)cn4C)cn3C)cn2C)cc1C(=O)NCCC(=O)NCCN1CCCCC1 [Id-5],+++ (+++ = MIC ≦4)
3,CCN(CC)CCCNC(=O)CCNC(=O)c1cc(NC(=O)c2cc(NC(=O)CCNC(=O)c3cc(NC(=O)c4cc(NC(=O)c5cc(Br)c(Br)s5)cn4C)cn3C)cn2C)cn1C [Id-6],+++ (+++ = MIC ≦4)

# Tested on: 5′-AAAAAGCAAAAA-3′
# Assay: not given
# Assay type: binding
# Conditions: DNA sequence 5′-AAAAAGCAAAAA-3′; pH 7.0, 22° C.
# Experimental: (§2) A number of compounds according to this invention were screened for their ability to bind to three DNA sites, using DNase I footprinting. Generally, the procedure described in Dervan, WO 98/50582 (1998), was followed.
# (§3) A plasmid was prepared by hybridizing two sets of 5′-phosphorylated complementary oligonucleotides, one set being
# (§4) The target sites and their complements are identified in bold underline.
# (§5) The resulting duplexes were ligated to the large pUC19 AvaI/SalI restriction fragment. The 3′-P32 end-labeled EcoRI/PvuII fragment was prepared by digesting the plasmid with EcoRI and PvuII with simultaneous fill-in using Sequenase v. 2.0, [alpha-P32]-deoxyadenosine-5′-triphosphate, and [alpha-P32]-thymidine-5′-triphosphate, and isolating the cloned fragment by nondenaturing gel electrophoresis. Standard methods were used for all DNA manipulations, including A and G sequencing. See, e.g., Maxam et al., Methods Enzymol., 1980, 65, 499-560; Iverson et al., Methods Enzymol., 1987, 15, 7823-7830; and Sambrook et al., 1989, Molecular Cloning, 2nd ed., Cold Spring Harbor Laboratory Press: Cold Spring Harbor, N.Y.
# (§6) Quantitative DNase I footprint titration experiments were carried out as described previously (Dervan, WO 98/50582, 1998, “Dervan '582”) with the following changes. All reactions were carried out in a total volume of 400 μL, with polyamide stock solution or water added to 15,000 cpm radiolabeled restriction fragment affording final solution conditions of 10 mM Tris.HCl, 10 mM KCl, 10 mM MgCl2, 5 mM CaCl2, pH 7.0 and 0.01 nM, 0.1 nM, 1.0 nM, 10.0 nM polyamide or no polyamide for reference lanes. The polyamides were allowed to equilibrate at 22° C. for 16 hr. Footprinting reactions were initiated with addition of 10 μL of a DNase I stock solution (at the appropriate concentration to give ˜50% intact DNA) containing 1 mM DTT and allowed to proceed for 7 min at 22° C. The reactions were stopped, ethanol precipitated, resuspended in loading buffer, heat denatured, and placed on ice as described in Dervan '582. The reaction products were separated on a precast 8% polyacrylamide denaturing sequencing Castaway gel with 32 preformed wells from Stratagene in 1× TBE at 2000 V. Gels were dried according to the manufacturer's instructions and exposed to a storage phosphor screen (Molecular Dynamics). Quantitation and data analysis were carried out as described in Dervan '582.
row,SMILES,Equilibrium Association Constant (Ka) [M⁻¹]
1,Cn1cc(NC(=O)c2cc(NC(=O)CCNC(=O)c3cc(NC(=O)c4cc(NC(=O)c5cc(Br)c(Br)s5)cn4C)cn3C)cn2C)cc1C(=O)NCCC(=O)NCC(C)(C)CN [Id-4],5e+09
2,Cn1cc(NC(=O)c2cc(NC(=O)CCNC(=O)c3cc(NC(=O)c4cc(NC(=O)c5cc(Br)c(Br)s5)cn4C)cn3C)cn2C)cc1C(=O)NCCC(=O)NCCN1CCCCC1 [Id-5],2e+09
3,CCN(CC)CCCNC(=O)CCNC(=O)c1cc(NC(=O)c2cc(NC(=O)CCNC(=O)c3cc(NC(=O)c4cc(NC(=O)c5cc(Br)c(Br)s5)cn4C)cn3C)cn2C)cn1C [Id-6],1e+10

# Tested on: 5′-AAAAAGACAAAAA-3′
# Assay: not given
# Assay type: binding
# Conditions: DNA sequence 5′-AAAAAGACAAAAA-3′; pH 7.0, 22° C.
# Experimental: as §2, §3, §4, §5, §6
row,SMILES,Equilibrium Association Constant (Ka) [M⁻¹]
1,Cn1cc(NC(=O)c2cc(NC(=O)CCNC(=O)c3cc(NC(=O)c4cc(NC(=O)c5cc(Br)c(Br)s5)cn4C)cn3C)cn2C)cc1C(=O)NCCC(=O)NCC(C)(C)CN [Id-4],1e+10
2,Cn1cc(NC(=O)c2cc(NC(=O)CCNC(=O)c3cc(NC(=O)c4cc(NC(=O)c5cc(Br)c(Br)s5)cn4C)cn3C)cn2C)cc1C(=O)NCCC(=O)NCCN1CCCCC1 [Id-5],2e+10
3,CCN(CC)CCCNC(=O)CCNC(=O)c1cc(NC(=O)c2cc(NC(=O)CCNC(=O)c3cc(NC(=O)c4cc(NC(=O)c5cc(Br)c(Br)s5)cn4C)cn3C)cn2C)cn1C [Id-6],1e+10

# Tested on: 5′-AAAAAGTACAAAAA-3′
# Assay: not given
# Assay type: binding
# Conditions: DNA sequence 5′-AAAAAGTACAAAAA-3′; pH 7.0, 22° C.
# Experimental: as §2, §3, §4, §5, §6
row,SMILES,Equilibrium Association Constant (Ka)
1,Cn1cc(NC(=O)c2cc(NC(=O)CCNC(=O)c3cc(NC(=O)c4cc(NC(=O)c5cc(Br)c(Br)s5)cn4C)cn3C)cn2C)cc1C(=O)NCCC(=O)NCC(C)(C)CN [Id-4],5e+11 M⁻¹
2,Cn1cc(NC(=O)c2cc(NC(=O)CCNC(=O)c3cc(NC(=O)c4cc(NC(=O)c5cc(Br)c(Br)s5)cn4C)cn3C)cn2C)cc1C(=O)NCCC(=O)NCCN1CCCCC1 [Id-5],1e+11 M⁻¹
3,CCN(CC)CCCNC(=O)CCNC(=O)c1cc(NC(=O)c2cc(NC(=O)CCNC(=O)c3cc(NC(=O)c4cc(NC(=O)c5cc(Br)c(Br)s5)cn4C)cn3C)cn2C)cn1C [Id-6],≧1 × 10^11 M^−1

# Tested on: S. aureus ATCC 29213
# Assay: NCCLS broth microdilution MIC
# Assay type: cell-based, Staphylococcus aureus
# Conditions: A = S. aureus ATCC 29213
# Experimental: as §1
row,SMILES,Minimum Inhibitory Concentration (MIC)
1,Cn1cc(NC(=O)c2cc(NC(=O)CCNC(=O)c3cc(NC(=O)c4cc(NC(=O)c5cc(Br)c(Br)s5)cn4C)cn3C)cn2C)cc1C(=O)NCCC(=O)NCC(C)(C)CN [Id-4],+++ (+++ = MIC ≦4)
2,Cn1cc(NC(=O)c2cc(NC(=O)CCNC(=O)c3cc(NC(=O)c4cc(NC(=O)c5cc(Br)c(Br)s5)cn4C)cn3C)cn2C)cc1C(=O)NCCC(=O)NCCN1CCCCC1 [Id-5],+++ (+++ = MIC ≦4)
3,CCN(CC)CCCNC(=O)CCNC(=O)c1cc(NC(=O)c2cc(NC(=O)CCNC(=O)c3cc(NC(=O)c4cc(NC(=O)c5cc(Br)c(Br)s5)cn4C)cn3C)cn2C)cn1C [Id-6],+++ (+++ = MIC ≦4)

# Tested on: E. coli ATCC 25922
# Assay: NCCLS broth microdilution MIC
# Assay type: cell-based
# Conditions: D = E. coli ATCC 25922
# Experimental: as §1
row,SMILES,Minimum Inhibitory Concentration (MIC) [µg/mL]
1,Cn1cc(NC(=O)c2cc(NC(=O)CCNC(=O)c3cc(NC(=O)c4cc(NC(=O)c5cc(Br)c(Br)s5)cn4C)cn3C)cn2C)cc1C(=O)NCCC(=O)NCC(C)(C)CN [Id-4],>32
2,Cn1cc(NC(=O)c2cc(NC(=O)CCNC(=O)c3cc(NC(=O)c4cc(NC(=O)c5cc(Br)c(Br)s5)cn4C)cn3C)cn2C)cc1C(=O)NCCC(=O)NCCN1CCCCC1 [Id-5],>32
3,CCN(CC)CCCNC(=O)CCNC(=O)c1cc(NC(=O)c2cc(NC(=O)CCNC(=O)c3cc(NC(=O)c4cc(NC(=O)c5cc(Br)c(Br)s5)cn4C)cn3C)cn2C)cn1C [Id-6],>32

# Tested on: E. faecalis ATCC 29212
# Assay: NCCLS broth microdilution MIC
# Assay type: cell-based, Enterococcus faecalis
# Conditions: B = E. faecalis ATCC 29212
# Experimental: as §1
row,SMILES,Minimum Inhibitory Concentration (MIC)
1,Cn1cc(NC(=O)c2cc(NC(=O)CCNC(=O)c3cc(NC(=O)c4cc(NC(=O)c5cc(Br)c(Br)s5)cn4C)cn3C)cn2C)cc1C(=O)NCCC(=O)NCC(C)(C)CN [Id-4],+++ (+++ = MIC ≦4)
2,Cn1cc(NC(=O)c2cc(NC(=O)CCNC(=O)c3cc(NC(=O)c4cc(NC(=O)c5cc(Br)c(Br)s5)cn4C)cn3C)cn2C)cc1C(=O)NCCC(=O)NCCN1CCCCC1 [Id-5],+++ (+++ = MIC ≦4)
3,CCN(CC)CCCNC(=O)CCNC(=O)c1cc(NC(=O)c2cc(NC(=O)CCNC(=O)c3cc(NC(=O)c4cc(NC(=O)c5cc(Br)c(Br)s5)cn4C)cn3C)cn2C)cn1C [Id-6],+++ (+++ = MIC ≦4)
